Laboratory results reported in patent US20150125457A1, “BONE REPAIR PROMOTER” (DAIICHI SANKYO COMPANY, LIMITED, priority 2012, published 2015).

Legend:
Assay type in all cases: in vivo
[1] = system: rat closed femur fracture model; assay: Rat closed femur fracture model, torsion test of femur strength; settings: 4 weeks after fracture
Description: A 10-week-old male Wistar rat (Charles River Laboratories Japan, Inc.) was anesthetized by isoflurane inhalation (inhalation of 5%, and retention of 2%), and retained in a supine position. The peripheral portion of the left knee was shaved with a clipper, and disinfected with Hibitane. About 2 cm of the skin of the left knee on the upside of the patella was incised. About 5 mm of the joint capsule was incised along with the outer edge of the patella, and then the patella was dislocated inward from the trochlear groove. A 22G injection needle was inserted into the medullary cavity in the center of the trochlear groove, and pulled out. Into the hole, a Kirschner wire (MIZUHO Corporation) having a diameter of 1 mm, which had been cut to 32 mm in advance was fully inserted in the medullary cavity of the femur. The joint capsule and the incised part of the skin were sutured with nylon suture (Alfresa Pharma Corporation). The left hind limb was fixed to an Einhorn type of bone fracture preparation device (special order item), and mechanical stress was added to the femur by dropping a weight from a predetermined position to prepare the bone fracture. Soft X-ray images of the hind limb were taken by using CT for animals (LCT-200, Hitachi Aloka Medical, Ltd.), and as a result it was confirmed that transverse fracture was prepared in the vicinity of the center of the femur. For the infection prevention, potassium penicillin G (Meiji Seika Pharma Co., Ltd.) was administered intramuscularly. CNP derivative A was administered subcutaneously once a day at a dose of 0.42 mg/kg/day for 7 days from one day after the surgery. Vehicle was administered to the control group. 4 weeks after the preparation of the bone fracture, the animal was anesthetized by isoflurane inhalation, retained in a supine position, and then bled for the euthanasia. The left and right femurs were resected, immersed in a physiological saline solution, and cryopreserved in a freezer. The femurs were thawed at a later date, subjected to torsion test using a bone strength meter (MZ-500S, MARUTO INSTRUMENT CO., LTD.), and the strength of the femur was measured. The test was performed in 12 cases in each group.

Sox9 gene = assay: Rat closed femur fracture model, cartilage-related marker gene expression (real-time PCR); settings: 0.5 mg/kg/day continuous s.c. (osmotic pump) for one week; 7 days after fracture; normalized to ubiquitin C
Description: In accordance with the method of Example 2, a rat closed fracture model was prepared. For an animal in a Sham group, a pin only was inserted into the femur, and a bone fracture was not prepared. An administration solution of CNP derivative A was prepared so as to be a dosage corresponding to 0.5 mg/kg/day, and then loaded into an osmotic pump (model 2001, Alzet). The osmotic pump was buried under the skin of the neck back of the animal, and continuous subcutaneous administration was performed for one week. Vehicle was continuously subcutaneously administered to the control group. 7 days after the preparation of the bone fracture, the animal was subjected to isoflurane inhalation anesthesia, retained in a supine position to open the abdomen, and then bled for the euthanasia. The left femur was resected, and immersed into RNAlater (Life Technologies Corporation). The diaphysis or part of the callus was cut out from the femur that had been refrigerated in RNAlater for one day or more. To the cut-out diaphysis or part of the callus, QIAzol (QIAGEN) was added, and the resultant was crushed with tungsten beads. […] The gene expression level was measured by a real-time PCR method using TaqMan Gene Expression Master Mix (Life Technologies Corporation). The measured value was standardized by the gene expression level of ubiquitin-C. […]

type X collagen gene = assay: as above; settings: 7 days after fracture
Description: In accordance with the method of Example 2, a rat closed fracture model was prepared. For an animal in a Sham group, a pin only was inserted into the femur, and a bone fracture was not prepared. An administration solution of CNP derivative A was prepared so as to be a dosage corresponding to 0.5 mg/kg/day, and then loaded into an osmotic pump (model 2001, Alzet). The osmotic pump was buried under the skin of the neck back of the animal, and continuous subcutaneous administration was performed for one week. Vehicle was continuously subcutaneously administered to the control group. 7 days after the preparation of the bone fracture, the animal was subjected to isoflurane inhalation anesthesia, retained in a supine position to open the abdomen, and then bled for the euthanasia. The left femur was resected, and immersed into RNAlater (Life Technologies Corporation). The diaphysis or part of the callus was cut out from the femur that had been refrigerated in RNAlater for one day or more. To the cut-out diaphysis or part of the callus, QIAzol (QIAGEN) was added, and the resultant was crushed with tungsten beads. The total RNA was extracted by an RNeasy Mini Kit (QIAGEN), and 1st strand cDNA was synthesized by a SuperScript VILO cDNA Synthesis Kit (Life Technologies Corporation). The gene expression level was measured by a real-time PCR method using TaqMan Gene Expression Master Mix (Life Technologies Corporation). The measured value was standardized by the gene expression level of ubiquitin-C. The standardization was performed for 12 cases in each group.
In accordance with the method of Example 2, a rat closed fracture model was prepared. An administration solution was prepared so as to be a dosage corresponding to 0.5 mg/kg/day by using various NPR-B agonists (CNP derivative A, hCNP-53 (SEQ ID NO: 2), CNP derivative C (CNP-36, amino acid Nos. 18 to 53 of SEQ ID NO: 2), and CNP derivative D (Pro-Gly-CNP37, SEQ ID NO: 15)), and then loaded into an osmotic pump (Model 2001, Alzet). The osmotic pump was buried under the skin of the neck back of the animal retained in a supine position, and continuous subcutaneous administration was performed for one week. Vehicle was administered to the control group. 7 days after the preparation of the bone fracture, the animal was subjected to isoflurane inhalation anesthesia, retained in a supine position to open the abdomen, and then subjected to blood collection from the abdominal aorta. EDTA Na was added to the blood, then the EDTA Na-added blood was centrifuged and the plasma separated, and the resultant was cryopreserved. At a later date, the cGMP level in the plasma was measured by a RIA method using a kit (YSI-7702, YAMASA CORPORATION). After blood collection, the animal was bled for the euthanasia, and then the left femur was resected. Each maximum diameter of the sagittal plane and the coronal plane in the callus was measured, and the average value was used as a callus diameter. In accordance with the method of Example 3, the type X collagen gene expression level in the callus was measured. The measurement was performed for 12 cases in each group.

In the case of “CNP derivative A: CNP (1-22) Ghrelin (12-28, E17D): SEQ ID NO: 13; SEQ ID NO: 157 of US 2010-305031 (GLSKGCFGLKLDRIGSMSGLGCVQQRKDSKKPPAKLQPR; Chimeric CNP J (SEQ ID NO157) of US2010-305031 and WO2009/142307, and CNP derivative A of current invention.)”, the “Share of individuals whose fractured left femur showed the reference value (3 N×mm/deg) or more” value ([1]; 0.42 mg/kg/day s.c. for 7 days, 12 individuals, vehicle 33%) is reported as 83%, the “Number of individuals whose fractured left femur showed the reference value (3 N×mm/deg) or more” value ([1]; 0.42 mg/kg/day s.c. for 7 days, out of 12 individuals) is reported as 10 individuals and the “Healing rate of the fracture” value ([1]; 0.42 mg/kg/day s.c. for 7 days, versus vehicle) is reported as “significantly improved”. For the same substance, the “Strength of the left femur to which bone fracture had been prepared (torsion test stiffness)” value ([1]; 0.42 mg/kg/day s.c. once a day for 7 days from one day after surgery, 12 cases) was “almost the same as that of the untreated right femur”, the “Gene expression level of Sox9 in fractured left femur” value (Sox9 gene) was “this high level was maintained” and the “Gene expression of type X collagen in fractured left femur” value (type X collagen gene; Example 3: 0.5 mg/kg/day continuous s.c. (osmotic pump) for one week, normalized to ubiquitin C) was “significantly suppressed”. The “Gene expression level of type X collagen in the callus” value (type X collagen gene; Example 4: 0.5 mg/kg/day continuous s.c. for one week, versus vehicle group, FIG. 5C) was “suppressed”.
